From US20220151999A1, “METHODS OF TREATING ATTENTION DEFICIT HYPERACTIVITY DISORDER USING KDM1A INHIBITORS SUCH AS THE COMPOUND VAFIDEMSTAT” (ORYZON GENOMICS, S.A., priority 2019, published 2022)

Legend:
Format in all cases: in vivo, human
ADHD patients [1] = assay: REIMAGINE Phase IIa trial, ADHD cohort: aggression by Clinical Global Impression (CGI-S, CGI-I) scales; conditions: adult ADHD patients (5 eligible), 1.2 mg/day oral, 5 days on/2 days off, 8 weeks
Text: (§1) As part of a Phase IIa clinical trial (REIMAGINE trial, EudraCT number 2018-002140-88) to evaluate the safety, tolerability and efficacy of the KDM1A inhibitor vafidemstat to treat aggression in adult population in patients with different CNS disorders, a cohort of ADHD patients was recruited and treated with vafidemstat for 8 weeks. A summary of the protocol of this clinical trial and results obtained in the ADHD cohort are provided below.
(§2) Reimagine is a unicenter, open-label, 1-arm, 8-week clinical study to evaluate the efficacy, safety and tolerability of vafidemstat in aggression in adult population with Alzheimer's Disease (AD), Lewy Body Dementia (LBD), Adult attention Deficit Hyperactivity Disorder (ADHD), Borderline Personality Disorder (BPD) and Autism Spectrum Disorder (ASD). Six patients to be recruited per disorder. […]
(§3) Evaluation of the effect of treatment with vafidemstat on aggression was performed using the Clinical Global Impression (CGI) scale. […] In addition to assessing its effect on aggression, the effect of treatment with vafidemstat on ADHD patients was also evaluated using the Attention Deficit Hyperactivity Disorder Rating Scale (ADHD-RS), a validated scale that is specific for ADHD and is widely used to evaluate ADHD in adults. […] Each item is scored from 0 to 3 points, with the highest scores indicating the presence of problematic symptoms/behavior. […]

ADHD patients [2] = assay: REIMAGINE Phase IIa trial, ADHD cohort: safety and tolerability; conditions: adult ADHD patients, 1.2 mg/day oral, 5 days on/2 days off, 8 weeks
Text: as §1
Reimagine is a unicenter, open-label, 1-arm, 8-week clinical study to evaluate the efficacy, safety and tolerability of vafidemstat in aggression in adult population with Alzheimer's Disease (AD), Lewy Body Dementia (LBD), Adult attention Deficit Hyperactivity Disorder (ADHD), Borderline Personality Disorder (BPD) and Autism Spectrum Disorder (ASD). Six patients to be recruited per disorder.
Main objective of the trial: To evaluate the safety and tolerability of vafidemstat in adult population with Alzheimer's Disease (AD), Lewy Body Dementia (LBD), Adult attention deficit hyperactivity disorder (ADHD), Borderline Personality Disorder (BPD), Autism Spectrum Disorder (ASD)
Treatment: All patients received vafidemstat (as free base) at a dose of 1.2 mg/day, administered orally as a single capsule, in a 5 days on/2 days off schedule, during 8 weeks. […]

ADHD patients [3] = assay: REIMAGINE Phase IIa trial, ADHD cohort: ADHD Rating Scale (ADHD-RS); conditions: adult ADHD patients (5 eligible), 1.2 mg/day oral, 5 days on/2 days off, 8 weeks; paired one-tail t-test p=0.0279
Text: as §1, §2, §3

Nc1nnc(CN[C@@H]2C[C@H]2c2ccc(OCc3ccccc3)cc2)o1 [vafidemstat, 5-((((1R,2S)-2-(4-(benzyloxy)phenyl)cyclopropyl)amino)methyl)-1,3,4-oxadiazol-2-amine]
CGI-Severity (CGI-S) score, aggression, change from visit 1 (baseline) to visit 7 (ADHD patients [1]; paired one-tail t-test p=0.0043): statistically significant reductions
CGI-Improvement (CGI-I) score, aggression, change from visit 1 (baseline) to visit 7 (ADHD patients [1]; paired one-tail t-test p=0.0352): statistically significant reductions
safety and tolerability of treatment (ADHD patients [2]): safe and well tolerated, without significant adverse events
ADHD-RS score, change from visit 1 (baseline) to visit 7 (ADHD patients [3]): statistically significant reduction
